From patent US20220107246A1, “NONCOVALENT TAGS AND RELATED METHODS FOR CYTOSOLIC DELIVERY OF MACROBIOMOLECULES” (University of Washington, priority 2019, published 2022)
“Also recorded” adds a separate entry of the source.

Tests used:
[1] = tested on: peptidylprolyl isomerase B (PPIB) mRNA; assay: siRNA delivery and real time RT PCR (PPIB mRNA knockdown in PC-3 cells); assay type: cell-based; conditions: siRNA complexed with tag, real-time PCR
Protocol: A small library of 14 chemicals that represent various lipophilicities while sharing a carboxylic acid group for easy conjugation with ethidium was screened. These hydrophobic compounds were chemically linked to ethidium via a hexacarbon (C6) linker. The resulting small-molecule tags were mixed with a model siRNA sequence against peptidylprolyl isomerase B (PPIB) and tested on a prostate tumor cell line, PC-3, for RNAi.
PC-3 cells were seeded in 24-well plate at density of 5,000 cells per well. […] Total RNA was isolated from the cell monolayer using Trizol reagent (Invitrogen) according to the manufacturer's protocol. 200 nanograms of RNA was converted to cDNA using random hexamer primer and MultiScribe Reverse Transcriptase Reagent (Applied Biosystems, Inc., Branchburg, N.J.). 100 nanograms of cDNA was amplified by SensiFast SYBR kit (Bioline, Taunton, Mass.) on a Chromo4™ Real-Time system (Bio-Rad, Hercules, Calif.). The primers used for PPIB amplification were 5′-[…]-3′ (forward primer; SEQ ID NO:6) and 5′-[…]-3′ (reverse primer; SEQ ID NO:7). Primers for detection of 18s were 5′-[…]-3′ (forward primer; SEQ ID NO:8) and 5′-[…]-3′ (reverse primer; SEQ ID NO:9).

siRNA = assay: Intercalation into siRNA monitored by fluorescence activation; assay type: binding; conditions: compared to tag 5
Protocol: To test this new concept of cytosolic delivery, a conjugation-free methodology was investigated that incorporated small chemical tags to transform siRNA sufficiently hydrophobic, membrane-permeant, and self-deliverable. […] For a proof of concept, a number of existing oligonucleotide intercalators were tested, due to their potential to non-covalently attach the lipophilic moiety to siRNA. Although DNA intercalating dyes are well-studied and broadly available, selection of dsRNA intercalators is limited. […] DNA intercalating dyes apply a stretching force thus may or may not work on siRNA. Eight DNA intercalating dyes (molecular structures shown in FIG. 7) were evaluated utilizing a very convenient feature of these dyes, fluorescence activation upon intercalation into oligonucleotides. […] Therefore, ethidium was used in the following studies.
After 5-minute incubation, the mixture was diluted to 100 μL and the fluorescence was measured with the microplate reader. The fluorescence increment (J. B. Le Pecq, et al., DNA polyintercalating drugs: DNA binding of diacridine derivatives, Proc Natl Acad Sci USA 72(8) (1975) 2915-9; B. Gaugain, et al., DNA Bifunctional intercalators. 2. Fluorescence properties and DNA binding interaction of an ethidium homodimer and an acridine ethidium heterodimer, Biochemistry 17(24) (1978) 5078-88, each of which is incorporated herein by reference in its entirety), ΔIF, is the difference of fluorescence intensity of the tags in the presence or absence of siRNA.

actin in HeLa cells = assay: F-actin labeling in live cells using LifeAct-GFP; assay type: cell-based
Protocol: Lastly, two applications that should have a major impact on biology and medicine, immunofluorescence in live cells, and delivery of therapeutic proteins inside cells were assessed for compatibility with the disclosed tag approach for cytosolic delivery. Immunofluorescence, one of the most common techniques in biological and medical research, is currently used to profile cell surface markers on live cells (e.g., many flow cytometry studies) missing all the key cell signaling nodes inside cells. Alternatively, immunofluorescence is currently used on fixed cells, missing the temporal dynamics of active cell signaling that determines cell fate, behavior, communications, and growth. […] Briefly, HeLa cells were incubated with cholesterol-tagged LifeAct-GFP or LifeAct-GFP alone and the cells were imaged. […] To confirm the labeling specificity, cells were pretreated with cytochalasin-D before incubating with LifeAct-Tag.
HeLa cells were seeded onto glass-bottom dishes. After one-day of culturing, cells were incubated with fresh media containing tagged LifeAct-GFP for 4 h at 37° C., followed by washing and counterstaining Hoechst 33258. The cells were imaged on an Olympus fluorescence microscope equipped with a true-color CCD, Qcolor 5.

HeLa cells = assay: Cellular delivery of tagged proteins, confocal microscopy; assay type: cell-based
Protocol: Purified Coomassie blue-cholesterol tag powder was reconstituted with ethanol/water (v/v: 4/1) to a concentration of 1.6 mM and stored at 4° C. as a stock. Before tagging, the concentration of all the protein solutions was diluted to 25 μM. […] The mixture was quickly mixed by pipetting. The mixture was incubated in a water bath (37° C.) for 8 min and sonicated in an ultrasonic water bath for 30 seconds. After another round of 8-min water bath incubation at 37° C., the protein was ready for delivery.
Cells were seeded on glass-bottom dishes (poly-D-lysine treated, MatTek Corp.) one day before the experiments. The cell monolayer was washed once with serum-free RPMI 1640 media and treated with 2 mL of RPMI 1640 media containing the tagged protein at a final concentration of 1 μM for 2 h. In the end, the cells were counter-stained with Hoechst 33342 and Alexa Fluor® 594 labeled Wheat Germ Agglutinin (WGA-AF594), respectively. The cells were washed three times with RPMI 1640 and imaged on a Zeiss LSM 710 microscope.
To study the delivery effect at low temperature (4° C.), cell monolayers were pre-equilibrated with cold media (RPMI 1640) for 10 minutes at 4° C. and then treated with the cold solution of tagged protein for 3 h. The cells were washed with cold media and imaged immediately.

| Molecule | RNAi effect (PPIB mRNA knockdown), tag screening [1] | also measured |
| --- | --- | --- |
| 3,8-bis(tert-butyloxycarbonylamino)-5-(6-L-argininylcarbonylamino-hexyl)-6-phenylphenanthridine [tag 4] | no or low effect | – |
| 3,8-bis(tert-butyloxycarbonylamino)-5-(6-L-histinylcarbonylamino-hexyl)-6-phenylphenanthridine [tag 3] | no or low effect | – |
| 3,8-bis(tert-butyloxycarbonylamino)-5-(6-L-leucinylcarbonylamino-hexyl)-6-phenylphenanthridine [tag 2] | no or low effect | – |
| 3,8-bis(tert-butyloxycarbonylamino)-5-(6-caprylcarbonylamino-hexyl)-6-phenylphenanthridine [tag 7] | no or low effect | – |
| 3,8-bis(tert-butyloxycarbonylamino)-5-(6-cerotylcarbonylamino-hexyl)-6-phenylphenanthridine [tag 9] | failed to lower the PPIB mRNA level | intercalation of tag into siRNA (fluorescence enhancement) (siRNA): minor fluorescence enhancement; also recorded: failed to intercalate into siRNA |
| 3,8-bis(tert-butyloxycarbonylamino)-5-(6-chloroquinecarboylamino-hexyl)-6-phenylphenanthridine [tag 13] | no or low effect | – |
| 3,8-bis(tert-butyloxycarbonylamino)-5-(6-cholesterylcarbonylamino-hexyl)-6-phenylphenanthridine [tag 5] | significant RNAi effect | – |
| 3,8-bis(tert-butyloxycarbonylamino)-5-(6-pentadecylcarbonylamino-hexyl)-6-phenylphenanthridine [tag 8] | no or low effect | – |
| 3,8-bis(tert-butyloxycarbonylamino)-5-(6-stigmasterylcarbonylamino-hexyl)-6-phenylphenanthridine [tag 6] | significant RNAi effect | – |
| 3,8-bis(tert-butyloxycarbonylamino)-5-[6-(1,2-dipalmitin)-carboylamino-hexyl]-6-phenylphenanthridine [tag 14] | no RNAi effect | intercalation of tag into siRNA (fluorescence enhancement) (siRNA): minor fluorescence enhancement; also recorded: failed to intercalate into siRNA |
| C=C1[C@@H](C)[C@H]2[C@H](Cc3ccccc3)NC(=O)[C@]23[C@H](OC(C)=O)/C=C/[C@@](C)(O)C(=O)[C@@H](C)C/C=C/[C@H]3[C@@H]1O [cytochalasin-D, reference compound] | – | actin filament structure after pretreatment (actin in HeLa cells; cells pretreated before incubating with LifeAct-Tag): completely disrupted |
| Coomassie blue, dicholest carbamyl 3-(3-propyl dimethyl amino)propyl sulfonamide [cholesterol tag] | – | imaging quality of delivered LifeAct-GFP (actin in HeLa cells; same LifeAct-GFP concentration): significantly better contrast |
| lysozyme: protein, 15 kDa, fluorescently labeled cargo | – | intracellular fluorescence pattern of cholesterol-tagged protein (HeLa cells; HeLa cells, protein tagged with CB-cholesterol tag): diffused distribution while having a few punctate bright spots; intracellular fluorescence distribution (HeLa cells; tag:protein molar ratio 1:1): only punctate intracellular fluorescence distribution; intracellular fluorescence distribution (HeLa cells; tag:protein molar ratio 3:1): only punctate intracellular fluorescence distribution; intracellular fluorescence distribution (HeLa cells; tag:protein molar ratio 6:1): diffused fluorescence signal started to appear; intracellular fluorescence distribution (HeLa cells; tag:protein molar ratio 8:1): significant direct membrane permeation |
